Source: ChEMBL document CHEMBL6074637, “Sidechain structure-activity relationships of cyclobutane-based small molecule αvβ3 antagonists” (RSC Med Chem, 2024)

Assays:
[1] = target: T1, Integrin alpha-V/beta-3 (Homo sapiens) (UniProt P05106+P06756); assay: Antagonist activity at alphavbeta3 integrin-mediated human SK-MEL-2 cell adhesion to fibronectin at 50 uM incubated with cells for 4 hrs followed by incubation with fibronectin in humidified chamber for 1 hr followed by incubation for overnight at 37 degC by MTT assay; type: cell-based
[2] = Cytotoxicity against alphavbeta3-expressing human U-87 MG cells assessed as reduction in cell viability measured after 96 hrs by MTT assay; type: toxicity, cell-based; settings: u-87mg atcc
SK-MEL-2 = assay: Cytotoxicity against alphavbeta3-expressing human SK-MEL-2 cells assessed as reduction in cell viability measured after 96 hrs by MTT assay; type: toxicity, cell-based; settings: sk-mel-2, 96 h
[3] = Toxicity in C57BL/6 immunocompetent mouse assessed as body weight upto 300 mg/kg, ip administered daily for 4 days; type: organism-based; settings: in vivo, 96 h, time 4 day
[4] = target: T1, Integrin alpha-V/beta-3 (Homo sapiens); assay: Antagonist activity at alphavbeta3 integrin-mediated human SK-MEL-2 cell adhesion to fibronectin at 5 uM incubated with cells for 4 hrs followed by incubation with fibronectin in humidified chamber for 1 hr followed by incubation for overnight at 37 degC by MTT assay; type: cell-based; settings: filed as antagonist

SMILES	inhibition [1]	Activity [2]	Activity (SK-MEL-2)	Activity [3]	inhibition [4] [%]
COC(=O)[C@H](CCNC(=O)[C@H]1C[C@@H](Cc2ccc3c(n2)NCCC3)C1)NS(=O)(=O)c1ccccc1	Not determined; Greater Than 75% Inhibition In Initial Trial Experiment, Not Tested Further At This Concentration	Toxic	Toxic		
COC(=O)[C@H](CCNC(=O)[C@H]1C[C@@H](Cc2ccc3cccnc3n2)C1)NS(=O)(=O)c1ccccc1		Toxic	Toxic		
COC(=O)[C@H](CCNC(=O)[C@H]1C[C@@H](CCc2ccc3cccnc3n2)C1)NS(=O)(=O)c1c(C)cc(C)cc1C	Not determined; Greater Than 75% Inhibition In Initial Trial Experiment, Not Tested Further At This Concentration	Toxic	Toxic		
COC(=O)[C@H](CCNC(=O)[C@H]1C[C@@H](Cc2ccc3c(n2)NCCC3)C1)NS(=O)(=O)c1c(C)cc(C)cc1C	Not determined; Greater Than 75% Inhibition In Initial Trial Experiment, Not Tested Further At This Concentration	Toxic	Toxic		
COC(=O)[C@H](CCNC(=O)[C@H]1C[C@@H](CCc2ccc3c(n2)NCCC3)C1)NS(=O)(=O)c1c(C)cc(C)cc1C	Not determined; Greater Than 75% Inhibition In Initial Trial Experiment, Not Tested Further At This Concentration	Toxic	Toxic		
O=C(O)C[C@H](NS(=O)(=O)c1ccccc1)C(=O)N[C@H]1C[C@@H](CCc2ccc3cccnc3n2)C1			Toxic		
COC(=O)[C@H](CCNC(=O)[C@H]1C[C@@H](CCc2ccc3cccnc3n2)C1)NS(=O)(=O)c1ccccc1	Not determined; Greater Than 75% Inhibition In Initial Trial Experiment, Not Tested Further At This Concentration		Toxic		
COC(=O)[C@H](CC(=O)N[C@H]1C[C@@H](CCc2ccc3c(n2)NCCC3)C1)NS(=O)(=O)c1ccccc1		Toxic	Toxic		
CC(C)(C)OC(=O)C[C@H](NS(=O)(=O)c1ccccc1)C(=O)N[C@H]1C[C@@H](CCc2ccc3cccnc3n2)C1	Not determined; Greater Than 75% Inhibition In Initial Trial Experiment, Not Tested Further At This Concentration		Toxic		
Cc1cc(C)c(S(=O)(=O)N[C@H]2CC(=O)N([C@H]3C[C@@H](CCc4ccc5cccnc5n4)C3)C2=O)c(C)c1			Toxic		
O=C(O)C[C@H](NS(=O)(=O)c1ccccc1)C(=O)N[C@H]1C[C@@H](CCc2ccc3c(n2)NCCC3)C1	Not determined; Greater Than 75% Inhibition In Initial Trial Experiment, Not Tested Further At This Concentration		Toxic		
COC(=O)[C@H](CC(=O)N[C@H]1C[C@@H](CCc2ccc3cccnc3n2)C1)NS(=O)(=O)c1c(C)cc(C)cc1C		Toxic	Toxic		
COC(=O)[C@H](CC(=O)N[C@H]1C[C@@H](CCc2ccc3c(n2)NCCC3)C1)NS(=O)(=O)c1c(C)cc(C)cc1C		Toxic	Toxic		
O=C1C[C@H](NS(=O)(=O)c2ccccc2)C(=O)N1[C@H]1C[C@@H](CCc2ccc3c(n2)NCCC3)C1		Toxic	Toxic		
CNc1cccc(CC[C@H]2C[C@@H](C(=O)NC[C@H](NS(=O)(=O)c3ccccc3)C(=O)OC)C2)n1	Not determined; Greater Than 75% Inhibition In Initial Trial Experiment, Not Tested Further At This Concentration	Toxic	Toxic		
CNc1cccc(CC[C@H]2C[C@@H](C(=O)NC[C@H](NS(=O)(=O)c3c(C)cc(C)cc3C)C(=O)OC)C2)n1		Toxic	Toxic	Non-toxic	
COC(=O)[C@H](CC(=O)N[C@H]1C[C@@H](CCc2ccc3cccnc3n2)C1)NS(=O)(=O)c1ccccc1		Toxic	Toxic		
COC(=O)[C@H](CCNC(=O)[C@H]1C[C@@H](CCc2ccc3c(n2)NCCC3)C1)NS(=O)(=O)c1ccccc1	Not determined; Greater Than 75% Inhibition In Initial Trial Experiment, Not Tested Further At This Concentration		Toxic		
Cc1cc(C)c(S(=O)(=O)N[C@H]2CC(=O)N([C@H]3C[C@@H](CCc4ccc5c(n4)NCCC5)C3)C2=O)c(C)c1			Toxic		
O=C1C[C@H](NS(=O)(=O)c2ccccc2)C(=O)N1[C@H]1C[C@@H](CCc2ccc3cccnc3n2)C1		Toxic	Toxic		
CC(C)(C)OC(=O)C[C@H](NS(=O)(=O)c1ccccc1)C(=O)N[C@H]1C[C@@H](CCc2ccc3c(n2)NCCC3)C1			Toxic		
COC(=O)[C@H](CCNC(=O)[C@H]1C[C@@H](Cc2ccc3cccnc3n2)C1)NS(=O)(=O)c1c(C)cc(C)cc1C		Toxic			
COC(=O)[C@H](CNC(=O)[C@H]1C[C@@H](CCc2ccc3c(n2)NCCC3)C1)NS(=O)(=O)c1ccccc1					59.5
